Laboratory results published in patent US20140357512A1, “HISTONE DEACETYLASE (HDAC) BIOMARKERS IN MULTIPLE MYELOMA” (priority 2013, published 2014).

Tested on: human myeloma cell line MM.1S
Test: SILAC acetylated-lysine peptide profiling, HDAC inhibitor vs DMSO (light/heavy ratio)
Type: cell-based
Text: An embodiment of the invention comprises utilizing the SILAC method in order to quantitate changes in protein expression between two or more populations of cells. The SILAC method is a technique based on mass spectrometry that detects differences in protein abundance among samples using non-radioactive isotopic labeling. The SILAC method is known in the art, and described in detail in Ong et al., “Stable Isotope Labeling by Amino Acids in Cell Culture, SILAC, as a Simple and Accurate Approach to Expression Proteomics”, Molecular & Cellular Proteomics, vol. 1, pp. 376-386 (2002), which is incorporated herein by reference in its entirety.
Briefly, the SILAC method involves growing two populations of cells in cell culture. The first population of cells is grown in growth media containing normal amino acids (“normal media”). The second population of cells is grown in media lacking a standard essential amino acid (such as lysine), but is then supplemented with a non-radioactive, isotopically labeled form of that essential amino acid (such as lysine labeled with ^13C atoms, rather than normal ^12C atoms), which is called “heavy media”. When the two populations of cells are each growing in the medium, they incorporate the amino acids into all of their proteins. The growth of cells maintained in the heavy media is no different from that in normal media. All peptides containing the heavy amino acids are heavier than their normal counterparts. The cells from each of the two populations of cells are lysed. The lysates from each of the two cell populations are then combined. The combined cell lysates are then analyzed by mass spectrometry. Pairs of chemically identical peptides of different stable isotope composition can be differentiated in a mass spectrometer due to their difference in mass. The ratio of peak intensities in the mass spectrum for such peptide pairs reflects the abundance ratio for the two proteins.
This example describes SILAC studies that were performed to compare the effects of three different HDAC inhibitors (Compound A, Compound B, and tubastatin A) to a control on a human multiple myeloma cell line. The HDAC inhibitors were also compared amongst themselves to determine differences in their effects.
A human myeloma cell line MM.1S was grown using either ^12C (light) or ^13C (heavy) lysine containing culture medium. The “heavy” cells were treated with DMSO as the control, and the “light” cells were treated with a single HDAC inhibitor at 37° C. for 6 hours. The heavy and light cells were lysed, and the lysates were mixed in 1:1 ratio and digested with the protease trypsin. The acetylated lysine containing peptides (due to the action of the HDAC inhibitor) in the digested peptide pool were captured by a non-specific anti-acetylated lysine antibody cocktail (the antibodies identify both light and heavy acetylated peptides), and subjected to mass spectrometry analysis in order to identify thousands of individual peptides.
Thousands of peptides were identified in pairs (^12C and ^13C) due to their known mass differences. The amino acid sequence and quantitative ratio (Light/Heavy) of a given peptide in two differentially treated cell lysates were then determined and annotated with their possible protein (gene) sources.
As stated above, three HDAC inhibitors (Compound A, Compound B, and Tubastatin A) were used. Thus, the SILAC method was performed three times, with a different HDAC inhibitor compared to a control each time. Accordingly, there are three pairs of quantitative data in the table below, i.e., Compound A:DMSO, Compound B:DMSO, and Tubastatin A:DMSO. A cut-off of 1.30 fold of change (increase or decrease) was then used to determine “changed” or “+” in the table, and any peptides with a fold of change less than 1.3 fold were determined to be “unchanged” or “0” in the table. Those peptides that were not identified were marked as “NA” in the table. […]

O=C(NO)c1cnc(NC2(c3cccc(F)c3)CCCCC2)nc1 [Compound B, 2-((1-(3-fluorophenyl)cyclohexyl)amino)-N-hydroxypyrimidine-5-carboxamide]
−0.66 log 2: L/H ratio of acetylated peptide (HTENVAK(ac)[…] (SEQ ID NO: 384), Transcriptional repressor CTCF [436], CTCF)
−0.74: L/H ratio of acetylated peptide AAEVLNK(ac)HSLSGRPLK (SEQ ID NO: 3) (HNRNPM [134], log 2 scale, drug vs DMSO)
−0.52 log 2: L/H ratio of acetylated peptide (IDYGEYMDK(ac)NNVR (SEQ ID NO: 454), Single-stranded DNA-binding protein mitochondrial [122], SSBP1)
−0.41 log 2: L/H ratio of acetylated peptide (HSPEDPEK(ac)YSCFALFVK (SEQ ID NO: 432), Isoform 1 of DNA-dependent protein kinase catalytic subunit [700], PRKDC)
0.63 log 2: L/H ratio of acetylated peptide (IAVEAQNK(ac)YER (SEQ ID NO: 457), Nucleoprotein TPR [1081], TPR)
0.71 log 2: L/H ratio of acetylated peptide (HMVMQK(ac)LLR (SEQ ID NO: 438), Isoform 1 of Poly(U)-binding-splicing factor PUF60 [454], PUF60)
0.66: L/H ratio of acetylated peptide PDPAK(ac)SAPAPK(ac)K (SEQ ID NO: 16) (HIST1H2BO [6:12], log 2 scale, drug vs DMSO)
0.00 log 2: light to heavy ratio (L/H ratio) of acetylated peptide SLNLK(ac)HIK (SEQ ID NO: 607) (HLA-B associated transcript 1 [188], gene SNORD84, DDX39B, inhibitor:DMSO) | light to heavy ratio (L/H ratio) of acetylated peptide […](ac)R (SEQ ID NO: 267) (Heat shock 70 kDa protein 1A/1B [71], HSPA1B, HSPA1A, drug:DMSO) | light to heavy ratio (L/H ratio) of acetylated peptide YEK(ac)DIAAYR (SEQ ID NO: 595) (High mobility group protein B2 [157], gene HMGB2, inhibitor:DMSO) | light to heavy ratio (L/H ratio) of acetylated peptide PEPAK(ac)SAPAPK(ac)K (SEQ ID NO: 309) (Histone H2B type 2-E [6:12], HIST2H2BE, drug:DMSO) | light to heavy ratio (L/H ratio) of acetylated peptide K(ac)STGGK(ac)APR (SEQ ID NO: 310) (Histone H3.2 [10:15], HIST2H3D, HIST2H3A, HIST2H3C, drug:DMSO) | light to heavy ratio (L/H ratio) of acetylated peptide GK(ac)GGK(ac)GLGK (SEQ ID NO: 311) (Histone H4 [6:9], HIST2H4B, HIST1H4C and other H4 genes, drug:DMSO) | light to heavy ratio (L/H ratio) of acetylated peptide GLGK(ac)GGAK(ac)R (SEQ ID NO: 312) (Histone H4 [13:17], HIST2H4B, HIST1H4C and other H4 genes, drug:DMSO) | light to heavy ratio (L/H ratio) of acetylated peptide GLGK(ac)GGAKR (SEQ ID NO: 313) (Histone H4 [13], HIST2H4B, HIST1H4C and other H4 genes, drug:DMSO) | light to heavy ratio (L/H ratio) of acetylated peptide DGLQNEK(ac)NIVSTPVK (SEQ ID NO: 268) (Hydroxymethylglutaryl-CoA lyase mitochondrial [48], HMGCL, drug:DMSO) | light to heavy ratio (L/H ratio) of acetylated peptide K(ac)[…] (SEQ ID NO: 594) (Hydroxymethylglutaryl-CoA lyase mitochondrial [137], gene HMGCL, inhibitor:DMSO)
0.00: L/H ratio of acetylated peptide K(ac)[…] (SEQ ID NO: 42) (HMGB2 [30], log 2 scale, drug vs DMSO) | L/H ratio of acetylated peptide RGEEGHDPK(ac)EPEQLR (SEQ ID NO: 43) (HNRNPA3 [29], log 2 scale, drug vs DMSO) | L/H ratio of acetylated peptide […](ac)WQSLK (SEQ ID NO: 44) (HNRNPM [83], log 2 scale, drug vs DMSO) | L/H ratio of acetylated peptide VK(ac)VLFVR (SEQ ID NO: 45) (HNRNPR [341], log 2 scale, drug vs DMSO) | L/H ratio of acetylated peptide […](ac)YSR (SEQ ID NO: 46) (HNRNPU [246], log 2 scale, drug vs DMSO) | L/H ratio of acetylated peptide TTWVTK(ac)HAAENPGK (SEQ ID NO: 47) (HNRNPU [497], log 2 scale, drug vs DMSO) | L/H ratio of acetylated peptide NK(ac)EIFLR (SEQ ID NO: 52) (HSP90B1 [97], log 2 scale, drug vs DMSO) | L/H ratio of acetylated peptide […](ac)IR (SEQ ID NO: 49) (HSP90B1 [114], log 2 scale, drug vs DMSO) | L/H ratio of acetylated peptide ETLQQHK(ac)LLK (SEQ ID NO: 50) (HSP90B1 [455], log 2 scale, drug vs DMSO) | L/H ratio of acetylated peptide IADDK(ac)YNDTFWK (SEQ ID NO: 51) (HSP90B1 [479], log 2 scale, drug vs DMSO) | L/H ratio of acetylated peptide […](ac)R (SEQ ID NO: 54) (HSPA5 [96], log 2 scale, drug vs DMSO) | L/H ratio of acetylated peptide […](ac)R (SEQ ID NO: 55) (HSPA8 [71], log 2 scale, drug vs DMSO) | light to heavy ratio (L/H ratio), log 2 scale, acetylated peptide TEMDWVLK(ac)[…] (SEQ ID NO: 797) (Heterogeneous nuclear ribonucleoprotein F [98], gene HNRNPF, drug:DMSO) | light to heavy ratio (L/H ratio), log 2 scale, acetylated peptide K(ac)AINK(ac)AQK (SEQ ID NO: 793) (Histone H2B type 1-M [17:21], gene HIST1H2BM, drug:DMSO) | light to heavy ratio (L/H ratio) of acetylated peptide, log 2 scale (IGK(ac)[…] (SEQ ID NO: 236), Thioredoxin domain-containing protein 5 [244], TXNDC5, MUTED, MUTED-TXNDC5)
